Structures are written as SMILES. Active and inactive are the calls of the source. No cut-off for these calls is given here.

What all share (assay type): functional, organism-based
The subject of assay [1] is Coptotermes formosanus. In words: Antifeeding activity against Coptotermes formosanus undifferentiated larvae assessed as induction of feeding deterrence using 0.5% w/w compound treated filter paper disks measured after 1 week by no-choice feeding test.
In assay [2] the test system is Coptotermes formosanus. Briefly: Antifeeding activity against Coptotermes formosanus undifferentiated larvae assessed as induction of feeding deterrence compound treated filter paper disks measured after 1 week by no-choice feeding test.
The test system of assay [3] is Coptotermes formosanus. In words: Feeding stimulant effect in Coptotermes formosanus undifferentiated larvae using 0.5% w/w compound treated filter paper disks measured after 1 week by no-choice feeding test.

Consider `CCCCCCCCCCCCCCOC(=O)c1cc(O)c(O)c(O)c1`, for which the outcome with Coptotermes formosanus [1] was Active.
Still for that read-out and setting: for `CCCOC(=O)c1cc(O)c(O)c(O)c1` the value was “Active”.
On to `CCCCCCCCCCOC(=O)c1cc(O)c(O)c(O)c1` [DECYL GALLATE], for which the result in the assay with Coptotermes formosanus [1] was Active. The IC50 with Coptotermes formosanus [2] came to 0.05%.
In the case of `CCCCCCCCOC(=O)c1cc(O)c(O)c(O)c1`, in the assay with Coptotermes formosanus [1], the outcome was Active.
As to `CCCCCCCCCCCCOC(=O)c1cc(O)c(O)c(O)c1`, the result with Coptotermes formosanus [1] was Active.
Consider `CCCCCCCCCCCCCCCCCCOC(=O)c1cc(O)c(O)c(O)c1`, for which the outcome with Coptotermes formosanus [3] was Active.
`CCCCCCOC(=O)c1cc(O)c(O)c(O)c1`: the outcome in the assay on Coptotermes formosanus [1] was Active.

For the origin of these results see ChEMBL document CHEMBL3045580, “New aspect of gallic esters: marked effect on termite feeding” (J Pestic Sci, 2011).
